Source: PubChem BioAssay (NCI)
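A five-concentration, 48-hour dose response in 96-well plates underlies each endpoint, interpolated linearly between surrounding concentrations. TGI is the concentration that stops growth completely.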 Where a SMILES comes first, the peptide text is derived from it. The star is where a group is joined. Cbz = O=C(OCc1ccccc1)*

Key:
Assay in all cases: NCI tumour cell line growth inhibition, 48 h
A498 renal = tested on: A498 renal
BT-549 breast = tested on: BT-549 breast
KM12 colon = tested on: KM12 colon
LOX IMVI melanoma = tested on: LOX IMVI melanoma
MDA-MB-435 = tested on: MDA-MB-435
NCI-H226 lung = tested on: NCI-H226 lung
NCI-H23 lung = tested on: NCI-H23 lung
NCI-H522 lung = tested on: NCI-H522 lung
NCI/ADR-RES ovarian = tested on: NCI/ADR-RES ovarian
OVCAR-4 ovarian = tested on: OVCAR-4 ovarian
PC-3 prostate = tested on: PC-3 prostate
SF-268 CNS = tested on: SF-268 CNS
SK-MEL-5 melanoma = tested on: SK-MEL-5 melanoma
SN12C renal = tested on: SN12C renal
T-47D breast = tested on: T-47D breast

Measured: TGI

COc1ccc(-[n+]2nc(S(=O)(=O)O)c(/C=C/c3ccc(N(C)C)cc3)cc2C#N)cc1
> 100 µM: all assays above

O=C(O)CCC(NC(=O)OCc1ccccc1)C(=O)NC(Cc1cnc[nH]1)C(=O)O (stereo not drawn) (Cbz-Glu-His-OH; configuration not given here)
> 100 µM: all assays above
